Measured values: patent publication US7932063B2, “Treatment of biomass to obtain fermentable sugars” (E. I. du Pont de Nemours and Company, priority 2005, dated 2011)
Like-named read-outs stand apart in the source and are kept apart here.

Tested on: Z. mobilis strain 8b
[1] = medium supplemented with 6 g/L acetamide, pH 6.0, 30° C., vs unsupplemented control, FIG. 1
[2] = medium supplemented with 7.2 g/L acetic acid, pH 6.0, 30° C., vs unsupplemented control, FIG. 1

From the text: Fermentation medium was composed of 10 g/L yeast extract, 2 g/L KH2PO4, 70 g/L glucose, 40 g/L xylose and 0.1 M MES buffer.

Row | Structure (SMILES) | final density of Z. mobilis [1] | growth rate of Z. mobilis [1] | inhibition of biocatalyst growth (summary statement referring to Example 12) | cell yield (as measured by dry cell mass) [2] | growth rate of Z. mobilis [2]
1 | CC(N)=O [acetamide] | no influence | no influence | non-inhibitory |  | 
2 | CC(=O)O [acetic acid] |  |  |  | lower cell yield | reduced growth rate
